Laboratory results as given in DBAASP.
≈ marks a conversion by molar mass, not a printed value. Where “and” joins values, the source holds several entries; their conditions need not be identical. Equal entries are not always repeated. Each block holds one molecule with its values, some of them ahead of it.

How the values were obtained:
Assay in all cases: ≥ marks a high value that may be exact or a test limit, other limits are often not marked, values filed in µg/mL are converted to µM
[1] = system: Staphylococcus epidermidis ATCC 12228
[2] = system: Klebsiella pneumoniae ATCC 700603
[3] = system: Pseudomonas aeruginosa ATCC 27853(ImiR)
[4] = system: Staphylococcus aureus 113
[5] = system: Staphylococcus aureus ATCC 25923
[6] = system: Pseudomonas aeruginosa 50
[7] = system: Escherichia coli ATCC 25922(GenR)
[8] = system: Klebsiella pneumoniae ATCC 700603(CipR)
[9] = system: Pseudomonas aeruginosa ATCC 27853
[10] = system: Staphylococcus aureus ATCC 29213
Staphylococcus aureus 75 = system: Staphylococcus aureus 75
[11] = system: Acinetobacter baumannii ATCC 19606(RifR)
[12] = system: Acinetobacter baumannii ATCC 19606(CipR)
[13] = system: Pseudomonas aeruginosa ATCC 27853(GenR)
[14] = system: Acinetobacter baumannii ATCC 19606
[15] = system: Escherichia coli ATCC 25922(CipR)
[16] = system: Escherichia coli ATCC 25922(RifR)
[17] = system: Klebsiella pneumoniae ATCC 700603(ImiR)
[18] = system: Bacillus subtilis ATCC 23857
[19] = system: Acinetobacter baumannii ATCC 19606(GenR)
[20] = system: Klebsiella pneumoniae ATCC 700603(RifR)
[21] = system: Klebsiella pneumoniae ATCC 700603(GenR)
[22] = system: Pseudomonas aeruginosa ATCC 27853(RifR)
Escherichia coli 780 = system: Escherichia coli 780
[23] = system: Acinetobacter baumannii ATCC 19606(ImiR)
[24] = system: Pseudomonas aeruginosa ATCC 27853(CipR)
[25] = system: Pseudomonas aeruginosa ATCC 9027
[26] = system: Escherichia coli ATCC 25922(ImiR)
Escherichia coli 804 = system: Escherichia coli 804
[27] = system: Acinetobacter baumannii 9931
[28] = system: Acinetobacter baumannii 97830
Yersinia enterocolitica = system: Yersinia enterocolitica
[29] = system: Escherichia coli ATCC 25922
[30] = system: Candida albicans TIMM 0144
[31] = system: Trichophyton mentagrophytes TIMM 1189
[32] = system: Escherichia coli DH5alpha
Bacillus subtilis PY22 = system: Bacillus subtilis PY22
[33] = system: Candida glabrata ATCC 2001
Candida krusei ATCC 6258 = system: Candida krusei ATCC 6258
[34] = system: Candida tropicalis ATCC 750
[35] = system: Candida parapsilosis ATCC 90018
[36] = system: Candida albicans ATCC 10231
[37] = system: Escherichia coli ATCC 35218
Candida albicans DBFIQ 1 = system: Candida albicans DBFIQ 1
[38] = system: Candida tropicalis DBFIQ 3
Candida albicans PEEC 2 = system: Candida albicans PEEC 2
[39] = system: Enterococcus faecalis ATCC 29212
[40] = system: Staphylococcus aureus BSF FBCB1313
Escherichia coli = system: Escherichia coli
[41] = system: Bifidobacterium longum subsp. infantis
Staphylococcus aureus = system: Staphylococcus aureus

SMILES: CC[C@H](C)[C@H](NC(=O)[C@H](CCC(N)=O)NC(=O)[C@H](Cc1cnc[nH]1)NC(=O)[C@@H](NC(=O)[C@@H]1CCCN1C(=O)[C@H](CC(N)=O)NC(=O)[C@H](CC(C)C)NC(=O)[C@H](CC(C)C)NC(=O)[C@H](CC(C)C)NC(=O)[C@@H](N)CCC(=O)O)[C@@H](C)O)C(=O)N[C@@H](Cc1ccc(O)cc1)C(=O)N1CCC[C@H]1C(=O)N[C@H](C(=O)N[C@H](C(=O)N[C@@H](CCC(N)=O)C(=O)N1CCC[C@H]1C(=O)N[C@@H](CC(C)C)C(=O)N[C@@H](C)C(=O)N1CCC[C@H]1C(=O)N[C@H](C(=O)O)C(C)C)[C@@H](C)O)C(C)C [ELLLNPTHQIYPVTQPLAPV]
MIC [5]: 89.1 µM (≈ 200 µg/mL)
MIC (Yersinia enterocolitica): ≥ 89.1 µM

SMILES: CC[C@H](C)[C@H](NC(=O)CN)C(=O)N[C@@H](CC(C)C)C(=O)N[C@@H](CC(=O)O)C(=O)N[C@H](C(=O)N[C@@H](CCCCN)C(=O)N[C@@H](CC(N)=O)C(=O)N[C@@H](CCCCN)C(=O)N[C@H](C(=O)N[C@@H](CO)C(=O)N[C@@H](CC(N)=O)C(=O)N[C@@H](CC(C)C)C(=O)N[C@@H](Cc1ccccc1)C(N)=O)C(C)C)[C@@H](C)CC [GILDIKNKVSNLF]
MIC [29]: 62.5 µM (≈ 91.2 µg/mL)
MIC [33]: ≥ 250 µM
MIC (Candida krusei ATCC 6258): ≥ 62.5 µM
MIC [34]: 31.2 µM (≈ 45.5 µg/mL)
MIC [35]: ≥ 125 µM
MIC [9]: 62.5 µM (≈ 91.2 µg/mL)
MIC [10]: 31.2 µM (≈ 45.5 µg/mL)
MIC [36]: 62.5 µM (≈ 91.2 µg/mL)

SMILES: CC(C)C[C@H](NC(=O)[C@@H](N)CCCCN)C(=O)N[C@@H](Cc1ccccc1)C(=O)N[C@@H](CCCCN)C(N)=O [KLFK]
MIC [37]: ≥ 240 µM
MIC (Candida albicans DBFIQ 1): ≥ 480 µM
MIC [5]: > 240 µM
MIC [38]: ≥ 480 µM
MIC (Candida albicans PEEC 2): ≥ 480 µM
MIC [9]: > 240 µM
MIC [39]: > 240 µM
MIC [40]: ≥ 240 µM

The remaining lines, values ahead:

MIC [1]: 2 µM (≈ 4.74 µg/mL)
MIC [2]: 8 µM (≈ 19 µg/mL)
MIC [3]: 8 µM (≈ 19 µg/mL)
MIC [4]: 2 µM (≈ 4.74 µg/mL)
MIC [5]: 4 µM and 8 µM
MIC [6]: 2 µM (≈ 4.74 µg/mL)
MIC [7]: 8 µM (≈ 19 µg/mL)
MIC [8]: 16 µM (≈ 37.9 µg/mL)
MIC [9]: 4 µM (≈ 9.48 µg/mL)
MIC [10]: 4 µM (≈ 9.48 µg/mL)
MIC (Staphylococcus aureus 75): 4 µM (≈ 9.48 µg/mL)
MIC [11]: 8 µM (≈ 19 µg/mL)
MIC [12]: 8 µM (≈ 19 µg/mL)
MIC [13]: ≥ 32 µM
MIC [14]: 8 µM (≈ 19 µg/mL)
MIC [15]: 8 µM (≈ 19 µg/mL)
MIC [16]: 16 µM (≈ 37.9 µg/mL)
MIC [17]: 16 µM (≈ 37.9 µg/mL)
MIC [18]: 2 µM (≈ 4.74 µg/mL)
MIC [19]: 16 µM (≈ 37.9 µg/mL)
MIC [20]: 16 µM (≈ 37.9 µg/mL)
MIC [21]: 16 µM (≈ 37.9 µg/mL)
MIC [22]: 4 µM (≈ 9.48 µg/mL)
MIC (Escherichia coli 780): 4 µM (≈ 9.48 µg/mL)
MIC [23]: 16 µM (≈ 37.9 µg/mL)
MIC [24]: 4 µM (≈ 9.48 µg/mL)
MIC [25]: 4 µM (≈ 9.48 µg/mL)
MIC [26]: 16 µM (≈ 37.9 µg/mL)
MIC (Escherichia coli 804): 16 µM (≈ 37.9 µg/mL)
MIC [27]: 8 µM (≈ 19 µg/mL)
MIC [28]: 4 µM (≈ 9.48 µg/mL)
SMILES: NCCCC[C@H](NC(=O)[C@H](CCCN=C(N)N)NC(=O)[C@H](Cc1c[nH]c2ccccc12)NC(=O)[C@H](CCCCN)NC(=O)[C@H](CCCN=C(N)N)NC(=O)[C@H](Cc1c[nH]c2ccccc12)NC(=O)[C@H](CCCCN)NC(=O)[C@H](CCCN=C(N)N)NC(=O)[C@H](Cc1c[nH]c2ccccc12)NC(=O)[C@H](CCCCN)NC(=O)[C@H](CCCN=C(N)N)NC(=O)[C@H](Cc1c[nH]c2ccccc12)NC(=O)[C@H](CCCCN)NC(=O)[C@H](CCCN=C(N)N)NC(=O)[C@@H](N)Cc1c[nH]c2ccccc12)C(N)=O [WRKWRKWRKWRKWRK]

MIC [29]: > 128 µM
MIC [30]: ≥ 33.1 µM
MIC [31]: 16.5 µM (≈ 50 µg/mL)
SMILES: CC[C@H](C)[C@H](NC(=O)[C@@H]1CSSC[C@H](NC(=O)[C@H](CCCCN)NC(=O)[C@@H](N)[C@@H](C)O)C(=O)N[C@@H](Cc2ccccc2)C(=O)N[C@@H](CCC(N)=O)C(=O)N[C@@H](Cc2c[nH]c3ccccc23)C(=O)N[C@@H](CCC(N)=O)C(=O)N[C@@H](CCCN=C(N)N)C(=O)N[C@@H](CC(N)=O)C(=O)N[C@@H](CCSC)C(=O)N[C@@H](CCCN=C(N)N)C(=O)N[C@@H](CCCCN)C(=O)N[C@@H](C(C)C)C(=O)N[C@@H](CCCN=C(N)N)C(=O)NCC(=O)N2CCC[C@H]2C(=O)N2CCC[C@H]2C(=O)N[C@@H](C(C)C)C(=O)N[C@@H](CO)C(=O)N1)C(=O)N[C@@H](CCCCN)C(=O)N[C@@H](CCCN=C(N)N)C(=O)N[C@@H](CC(=O)O)C(=O)N[C@@H](CO)C(=O)O [TKCFQWQRNMRKVRGPPVSCIKRDS]

MIC [32]: ≥ 125 µM
MIC (Bacillus subtilis PY22): 31.3 µM (≈ 32.8 µg/mL)
SMILES: CC(=O)N[C@@H](CCCN=C(N)N)C(=O)N[C@@H](Cc1c[nH]c2ccccc12)C(=O)N[C@@H](CCCN=C(N)N)C(=O)N[C@@H](Cc1ccccc1)C(=O)N[C@@H](Cc1c[nH]c2ccccc12)C(=O)N[C@@H](CCCN=C(N)N)C(N)=O [RWRFWR]

MIC (Escherichia coli): > 2720 µM
MIC [41]: ≥ 2720 µM
MIC (Staphylococcus aureus): > 2720 µM
SMILES: CC[C@H](C)[C@H](NC(=O)[C@@H](NC(=O)[C@@H]1CCCN1C(=O)[C@H](CC(C)C)NC(=O)[C@H](C)NC(=O)[C@H](CO)NC(=O)[C@@H](NC(=O)[C@@H](N)CCSC)[C@@H](C)O)[C@@H](C)CC)C(=O)N[C@@H](CCC(N)=O)C(=O)N[C@@H](CCCCN)C(=O)O [MTSALPIIQK]
